# Patent US20230348453A1, “HALOGENATED-HETEROARYL AND OTHER HETEROCYCLIC KINASE INHIBITORS, AND USES THEREOF” (iOmx Therapeutics AG, priority 2020, published 2023)
# Read-outs that look alike come from different tables or passages of the source.
# Legend:
# in vivo = conditions: male, CD1, mouse, po, 30 mg/kg
# [1] = MDCK wild type permeability/efflux; conditions: dog
# [2] = Murine plasma protein binding
# MV4-11 cell line = experiment: Growth inhibition (GI50) of AML cell lines; assay type: cell-based; conditions: Homo sapiens, MV4-11; pMEF2C-positive; read-out: GI50 against MV4-11 cell line
# [3] = Mouse hepatocyte stability; assay type: in vitro ADME; conditions: hepatocytes
# KASUMI-1 cell line = experiment: Growth inhibition (GI50) of AML cell lines; assay type: cell-based; conditions: Homo sapiens, Kasumi 1; pMEF2C-positive; read-out: GI50 against KASUMI-1 cell line
# SIK3 [4] = molecular target: T1, SIK3 (Homo sapiens (Human), UniProt Q9Y2K2)
# SIK3 [5] = molecular target: T1, SIK3; experiment: SIK3 kinase inhibition (IC50)
# [6] = Human hepatocyte stability; assay type: in vitro ADME; conditions: human, hepatocytes
# CSF1R = CSF1R (Homo sapiens (Human), UniProt P07333); assay type: biochemical; conditions: Kinase Profiler
# [7] = system: HDAC4 phosphorylation in PANC-1 cells; experiment: HDAC4 phosphorylation (Meso Scale Discovery assay); conditions: 10 ng/mL rHuTNF, 3 h
# [8] = system: NFKB activity in PANC-1 cells; experiment: TNF-induced NFKB activity (NFKB-dependent luciferase reporter); conditions: 10 ng/ml rHuTNF, PANC-1 reporter cells
# in vitro [9] = conditions: human, microsomes
# HCK = HCK (Homo sapiens (Human), UniProt P08631); assay type: biochemical; conditions: Kinase Profiler
# [10] = system: SIK3 WT and KO MC38 clones; experiment: TNF-mediated killing of SIK3 wildtype vs SIK3 knockout MC38 clones (CTG); assay type: cell-based, mouse; conditions: sub-optimal TNF (<10 ng/ml), 72 h
# Method: The assay was performed as follows: MC38 SIK3 KO clones were generated using CRISPR. Cells were transfected with RNP complexes (Cas9+gRNA) containing gRNAS targeting SIK3 or non-targeting sequences (control). […] Subsequently, single cell clones were generated by limiting dilution. CRISPR-derived mutations in single clones were detected by next-generation sequencing and analysed using CRISPResso. Knockout and wildtype clones were selected and plated overnight. […] Cells treated with different concentrations of inhibitor but without TNF served as no TNF control. Cell viability was measured by CTG assay.
# [11] = Screening PK in mice after 30 mg/kg po
# [12] = system: MC38 colorectal carcinoma tumours; experiment: MC38 syngeneic mouse tumour model (Example 8.1); conditions: MC38; 40 mg/Kg, BID po
# in vitro [13] = conditions: mouse, microsomes
# SIK2 [14] = molecular target: T2, SIK2 (Homo sapiens (Human), UniProt Q9H0K1); experiment: SIK2 kinase inhibition (IC50); conditions: read-out: Kinase: IC50 (nM) SIK2
# [15] = female, C57BL/6, mouse, in vivo, 7 days
# [16] = system: NFKB activity in MC38 cells; experiment: TNF-induced NFKB activity (NFKB-dependent luciferase reporter); conditions: 10 ng/ml rMuTNF
# MDR1 (P-gp) [17] = molecular target: T3, MDR1 (P-gp) (Homo sapiens (Human), UniProt P08183); experiment: MDR1-MDCK effective efflux assay; conditions: dog; for efflux ratio: Table 5.1B
# [18] = molecular target: MDR1 pump (P-gp), MDCK-MDR1 cells (Homo sapiens (Human), UniProt P08183); experiment: MDR1-MDCK effective efflux assay; conditions: Table 5.1B
# [19] = Human plasma-protein binding
# [20] = in vivo, po, 30 mg/kg
# HCT116 cells = experiment: TNF-sensitised cell viability assay (CellTiter-Glo); conditions: Homo sapiens, HCT-116, read-out: HCT116 IC50 (at 10 ng/ml rHuTNF)
# [21] = system: MC38 murine tumour cell line; experiment: as above; conditions: Mus musculus; for IC50: MC-38, read-out: MC38 IC50 (at 100 ng/mL rMuTNF)
# [22] = Metabolite profile in hepatocytes / in vivo
# From the text: Metabolites are identified using high-resolution mass spectrometry.
# SRC (GST-HIS-tag) = SRC (GST-HIS-tag) (Homo sapiens (Human), UniProt P12931); assay type: biochemical
# ABL1 wt = ABL1 wt (Homo sapiens (Human), UniProt P00519); assay type: biochemical
# SIK2 [23] = molecular target: T2, SIK2; conditions: read-out: SIK2 IC50
# [24] = system: MPAL-associated AML cell lines (including MOLM-13 and MV4-11); conditions: chemical inhibition of SIK3; cited from earlier work
# [25] = microsomes
# [26] = mouse, in vivo, po, 30 mg/kg
# BRAF = BRAF (Homo sapiens (Human), UniProt P15056); experiment: biochemical; conditions: read-out: BRAF residual activity (%) at 1 μM, 1 μM
# RET = RET (Homo sapiens (Human), UniProt P07949); experiment: biochemical; conditions: read-out: RET residual activity (%) at 1 μM, 1 μM
# MDR1 (P-gp) [27] = molecular target: T3, MDR1 (P-gp); experiment: in vitro; conditions: dog, MDCK-MDR1, MDCK-MDR1 cells
# in vitro [28] = conditions: dog, MDCK, MDCK-wild type cells
# [29] = microsomes; remark: listed apart in the source
# [30] = Full pharmacokinetic study in mice; conditions: for half-life: male, CD1, mouse, plasma
# PANC1 cells = experiment: TNF-sensitised cell viability assay (CellTiter-Glo); conditions: Homo sapiens, PANC-1, read-out: PANC IC50 (at 100 ng/ml rHuNF)
# [31] = total plasma concentration at 30 mg/kg p.o dose, fold of C7 (C7 = 1×)
# Chain of CSF1R (P07333 20-972 limits assumed): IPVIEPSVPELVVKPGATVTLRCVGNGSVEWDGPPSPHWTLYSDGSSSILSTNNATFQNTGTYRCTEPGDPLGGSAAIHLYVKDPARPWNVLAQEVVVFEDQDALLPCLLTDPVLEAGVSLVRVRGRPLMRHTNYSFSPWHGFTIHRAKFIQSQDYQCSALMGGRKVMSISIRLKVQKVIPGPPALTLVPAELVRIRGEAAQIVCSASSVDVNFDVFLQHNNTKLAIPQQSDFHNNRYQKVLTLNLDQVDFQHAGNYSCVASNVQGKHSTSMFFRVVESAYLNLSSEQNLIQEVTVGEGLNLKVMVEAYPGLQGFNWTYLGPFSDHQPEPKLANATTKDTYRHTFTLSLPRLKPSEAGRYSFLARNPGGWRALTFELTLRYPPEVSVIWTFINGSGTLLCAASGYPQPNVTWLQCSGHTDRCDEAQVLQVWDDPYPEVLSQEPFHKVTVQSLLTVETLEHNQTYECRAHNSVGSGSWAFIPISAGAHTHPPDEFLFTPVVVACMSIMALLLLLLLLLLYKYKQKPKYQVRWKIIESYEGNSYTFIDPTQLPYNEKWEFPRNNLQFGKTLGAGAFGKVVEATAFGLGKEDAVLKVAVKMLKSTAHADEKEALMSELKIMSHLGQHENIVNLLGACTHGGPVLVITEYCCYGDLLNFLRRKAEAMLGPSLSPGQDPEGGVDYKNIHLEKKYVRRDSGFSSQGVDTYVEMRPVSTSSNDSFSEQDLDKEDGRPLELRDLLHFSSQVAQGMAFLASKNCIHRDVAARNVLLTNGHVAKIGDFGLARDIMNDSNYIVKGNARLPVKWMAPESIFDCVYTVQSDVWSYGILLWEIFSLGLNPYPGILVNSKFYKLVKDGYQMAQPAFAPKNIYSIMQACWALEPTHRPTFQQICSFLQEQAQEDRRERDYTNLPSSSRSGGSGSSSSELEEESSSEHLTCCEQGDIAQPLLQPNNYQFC
# Chain of RET (P07949 29-1114 limits assumed): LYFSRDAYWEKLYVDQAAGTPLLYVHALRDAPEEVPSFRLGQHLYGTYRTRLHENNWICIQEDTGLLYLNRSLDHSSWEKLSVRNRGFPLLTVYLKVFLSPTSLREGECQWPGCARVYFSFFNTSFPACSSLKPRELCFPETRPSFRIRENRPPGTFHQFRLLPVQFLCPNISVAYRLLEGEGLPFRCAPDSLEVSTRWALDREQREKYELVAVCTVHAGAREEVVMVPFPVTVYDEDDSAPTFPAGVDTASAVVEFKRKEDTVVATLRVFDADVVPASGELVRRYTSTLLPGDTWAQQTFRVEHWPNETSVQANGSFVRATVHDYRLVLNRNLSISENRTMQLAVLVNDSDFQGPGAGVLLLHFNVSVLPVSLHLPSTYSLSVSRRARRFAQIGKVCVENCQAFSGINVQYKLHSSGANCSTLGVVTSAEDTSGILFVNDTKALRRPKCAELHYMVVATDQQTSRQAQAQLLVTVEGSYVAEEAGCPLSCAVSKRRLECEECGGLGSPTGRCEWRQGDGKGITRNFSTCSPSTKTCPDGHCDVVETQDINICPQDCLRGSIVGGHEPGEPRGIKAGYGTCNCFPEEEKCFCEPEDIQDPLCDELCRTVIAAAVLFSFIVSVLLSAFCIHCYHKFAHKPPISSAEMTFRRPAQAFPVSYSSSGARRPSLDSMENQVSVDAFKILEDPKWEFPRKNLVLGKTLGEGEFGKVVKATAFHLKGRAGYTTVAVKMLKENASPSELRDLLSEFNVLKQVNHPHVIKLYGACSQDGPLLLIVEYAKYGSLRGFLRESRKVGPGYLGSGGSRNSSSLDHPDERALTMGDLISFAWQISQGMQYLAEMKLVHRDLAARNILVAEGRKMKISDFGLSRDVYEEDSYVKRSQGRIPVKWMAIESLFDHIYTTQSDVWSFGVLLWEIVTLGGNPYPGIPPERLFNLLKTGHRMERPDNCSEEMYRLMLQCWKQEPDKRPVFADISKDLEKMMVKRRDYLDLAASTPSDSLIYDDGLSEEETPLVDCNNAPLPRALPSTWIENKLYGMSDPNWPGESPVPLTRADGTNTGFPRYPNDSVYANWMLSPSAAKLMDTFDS
# Chain of ABL1 wt (P00519 118-535 limits assumed): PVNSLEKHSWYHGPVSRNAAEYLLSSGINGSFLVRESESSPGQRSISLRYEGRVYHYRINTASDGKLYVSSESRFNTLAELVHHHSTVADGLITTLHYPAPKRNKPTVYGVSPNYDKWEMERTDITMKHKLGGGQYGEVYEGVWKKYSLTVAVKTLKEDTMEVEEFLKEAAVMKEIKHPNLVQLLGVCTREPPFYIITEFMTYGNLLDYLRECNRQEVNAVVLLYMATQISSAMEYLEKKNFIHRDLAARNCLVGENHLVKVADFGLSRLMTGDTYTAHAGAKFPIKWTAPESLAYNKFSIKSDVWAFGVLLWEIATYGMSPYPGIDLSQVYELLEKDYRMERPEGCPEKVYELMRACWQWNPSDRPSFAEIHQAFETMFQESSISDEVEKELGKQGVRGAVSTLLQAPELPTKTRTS
compound,measurement,setting,value
"Cc1nc(Nc2ncc(C(=O)Nc3c(C(F)F)csc3Cl)s2)cc(N2CCN(CCO)CC2)n1 [Compound E4, N-(2-chloro-4-(difluoromethyl)thiophen-3-yl)-2-((6-(4-(2-hydroxyethyl)piperazin-1-yl)-2-methylpyrimidin-4-yl)amino)thiazole-5-carboxamide]",AUC(0-inf),in vivo,5.5 µM·h
same,AUC(0-t),in vivo,5.48 µM·h
same,Cmax,in vivo,1240 ng/mL
same,MRT last,in vivo,5.88 h
same,Tmax,in vivo,2 h
same,half-life,in vivo,269 min
same,Papp,[1],5 ×10⁻⁶ cm/s
same,efflux ratio,[1],4.1
same,"Murine plasma protein binding, Percentage unbound (%)",[2]; Table 5.1A,2%
same,recovery at 4 h,"[2]; mouse, plasma",80%
same,GI50,MV4-11 cell line,< 750 nM
same,half-life,[3],78 min
same,microsomal CLint,"[3]; read-out: Mouse hepatocyte stability, Intrinsic clearance",18 µL/min/mg
same,GI50,KASUMI-1 cell line,< 7.5 nM
same,"SIK3 IC50 (nM), relative to C7",SIK3 [4]; fold of the value of compound C7 (C7 = 1×),0.6×
same,IC50,SIK3 [5]; read-out: Kinase: IC50 (nM) SIK3,< 20 nM
same,half-life,"[6]; read-out: Human hepatocyte stability, Half-life",64 min
same,microsomal CLint,"[6]; read-out: Human hepatocyte stability, Intrinsic clearance",22 µL/min/mg
same,half-life,[6]; read-out: half-life in the presence of human hepatocytes (converted),~60 min
same,CSF1R residual activity,CSF1R,less than 1%
same,Inhibition of HDAC4 phosphorylation,[7],++
same,Inhibition of NFKB activity (PANC-1),[8],++
same,half-life,in vitro [9],22 min
same,microsomal CLint,in vitro [9],65 µL/min/mg
same,HCK residual activity,HCK,less than 1%
same,TNF-mediated killing in SIK3 WT vs KO MC38 clones,[10],induced TNF-mediated killing only in SIK3 WT clones
same,fold increase of concentration at 6 h compared to dasatinib,"[11]; mice, 30 mg/kg po, 6 h",3 fold
same,fold improvement of free serum concentration over C7,"[11]; mouse, in vivo",5 fold
same,fold improvement of total serum concentration over C7,"[11]; mouse, in vivo",9.6 fold
same,Cmax at 2 h,"[11]; mouse, plasma, po, 30 mg/kg",1210 ng/mL
same,concentration at 6 h,"[11]; mouse, plasma, po, 30 mg/kg, Free plasma concentration after 6 h (nM), mice, 30 mg/kg po, 6 h",17.9 nM
same,concentration at 6 h,"[11]; mouse, plasma, po, 30 mg/kg, Plasma concentration after 6 h (nM), mice, 30 mg/kg po, 6 h",662 nM
same,"AUC0-last (nM*h), relative to C7",[11]; [31],4.7×
same,"C max (ng/ml), relative to C7",[11]; [31],2.6×
same,"MRT0-last (h), relative to C7",[11]; [31],2×
same,"t1/2 (h), relative to C7",[11]; [31],3.2×
same,Body weight increase (%),[12],12.0%
same,Non-treatment related death,[12],3/16
same,Tumour growth inhibition (%),[12],64%
same,half-life,in vitro [13],20 min
same,microsomal CLint,in vitro [13],70 µL/min/mg
same,IC50,SIK2 [14],< 20 nM
same,DLT@BID dosing,[15],60 to 80 mg/kg
same,DLT@QD dosing,[15],n.d. @80 mg/kg
same,HRD in vivo @BID,[15],33 mg/kg
same,HRD in vivo @QD,[15],80 mg/kg
same,Inhibition of NFKB activity (MC38),[16],++
same,Papp,MDR1 (P-gp) [17]; MDCK-MDR1,3 ×10⁻⁶ cm/s
same,efflux ratio,"MDR1 (P-gp) [17]; MDCK-MDR1, MDCK-MDR1 cells, Mean Efflux Ratio (MDR1)",40 to 50
same,efflux ratio,"MDR1 (P-gp) [17]; MDCK-MDR1, P-gP driven efflux ratio (MDR1/wt)",11
same,"MDCK-MDR1 cells, Mean Efflux Ratio (MDR1)",[18],43
same,"Human plasma-protein binding, Percentage unbound (%)",[19]; Table 5.1A,<1%
same,recovery at 4 h,"[19]; human, plasma",77%
same,"% AUCextrap, Free","[20]; male, CD1, mouse",0.31%
same,"% AUCextrap, Total","[20]; male, CD1, mouse",0.31%
same,"AUCinf (nM*h), Free","[20]; male, CD1, mouse",148.39 nM·h
same,"AUClast (nM*h), Free","[20]; male, CD1, mouse",147.93 nM·h
same,"Rsq, Free",[20]; mouse,0.90
same,"Rsq, Total",[20]; mouse,0.90
same,IC50,HCT116 cells,< 100 nM
same,IC50,[21],< 100 nM
same,EC50,"[21]; MC-38, read-out: mean EC50 of sensitising MC38 tumour cells to TNF-mediated killing",< 100 nM
same,quinone-imine reactive metabolite,[22],not observed
Cc1nc(Nc2ncc(C(=O)Nc3c(Cl)ccnc3C)s2)cc(N2CCN(C)CC2)n1 [Compound C10],IC50,SIK3 [4]; read-out: SIK3 IC50,493 nM
same,IC50,SRC (GST-HIS-tag),< 1.5 nM
same,IC50,ABL1 wt,4.3 nM
same,IC50,SIK2 [23],138 nM
HG-9-91-01,viability of AML cell lines,[24],strongly decreases viability
"Cc1nc(Nc2ncc(C(=O)Nc3c(Cl)ccnc3C)s2)cc(N2CCN(CCO)CC2)n1 [Compound B3, N-(4-chloro-2-methylpyridin-3-yl)-2-((6-(4-(2-hydroxyethyl)piperazin-1-yl)-2-methylpyrimidin-4-yl)amino)thiazole-5-carboxamide]","Human liver microsomal stability, Intrinsic clearance",[25],24 µL/min/mg
same,AUC(0-inf),in vivo,0.697 µM·h
same,"Murine plasma protein binding, Percentage unbound (%)",[2]; Table 5A,11%
same,"Murine plasma protein binding, Percentage unbound (%)",[2]; Table 5.1A,11%
same,CSF1R residual activity,CSF1R,less than 1%
same,Plasma concentration after 6 h,[26],29 nM
same,remaining activity at 1 µM,BRAF,~50%
same,half-life,in vitro [9],58 min
same,HCK residual activity,HCK,less than 1%
same,concentration at 2 h,"[11]; CD1, mouse, plasma, po, 30 mg/kg, Free concentration (nM) at 2 hours, mice, 30 mg/kg po, 2 hours",13 nM
same,concentration at 7 h,"[11]; CD1, mouse, plasma, po, 30 mg/kg, Free concentration (nM) at 7 hours, mice, 30 mg/kg po, 7 hours",3 nM
same,Cmax at 2 h,"[11]; mouse, plasma, po, 30 mg/kg",56 ng/mL
same,half-life,in vitro [13],62 min
same,remaining activity at 1 µM,RET,~100%
same,Papp,MDR1 (P-gp) [27],20 ×10⁻⁶ cm/s
same,Papp,MDR1 (P-gp) [27]; Mean Papp A > B (10^−6 cm/s),< 0.8 ×10⁻⁶ cm/s
same,Papp,in vitro [28]; Mean Papp A > B (10^−6 cm/s),6.8 ×10⁻⁶ cm/s
same,Papp,in vitro [28]; Mean Papp B > B (10^−6 cm/s),20 ×10⁻⁶ cm/s
same,"Mouse liver microsomal stability, Intrinsic clearance (L/min/mg)",[29],22 µL/min/mg
same,half-life,"[30]; iv, 1 mg/kg",12 min
same,half-life,"[30]; po, 30 mg/kg",144 min
same,"Cmax (ng/ml), Total","[30]; mouse, in vivo",99 ng/mL
same,"t1/2 (h), Free","[30]; mouse, in vivo",2.4 h
same,"Human plasma-protein binding, Percentage unbound (%)",[19]; Table 5A,7%
same,"Human plasma-protein binding, Percentage unbound (%)",[19]; Table 5.1A,7%
same,"% AUCextrap, Total","[20]; male, CD1, mouse",14%
"Cc1nc(Nc2ncc(C(=O)Nc3c(C(F)F)csc3Cl)s2)cc(N2CCN(C)C(C)C2)n1 (racemic) [Compound E16, N-(2-chloro-4-(difluoromethyl)thiophen-3-yl)-2-((2-methyl-6-(3,4-dimethylpiperazin-1-yl)pyrimidin-4-yl)amino)thiazole-5-carboxamide]",IC50,SIK3 [5],20 to 50 nM
same,IC50,SIK2 [14],< 20 nM
same,IC50,PANC1 cells,< 100 nM
same,IC50,HCT116 cells,< 100 nM
same,IC50,[21],< 100 nM
